Laboratory results from ChEMBL document CHEMBL1130138, “Design of low molecular weight hematoregulatory agents from the structure-activity relationship of a dimeric pentapeptide” (1997).

The compounds below were run on C6 (assay: Neutralization of colony - stimulating activity was determined by incubating supernatants from stromal cells stimulated by compound (1000 ng/mL) with an antibody raised against KC[38-72].). Settings: not given.
Type: functional, Mus musculus

Row | Structure (SMILES) | HSF
1 | NCCCC[C@H](NC(=O)[C@H](CCCC[C@H](NC(=O)[C@H](CC(=O)O)NC(=O)[C@H](CCC(=O)O)NC(=O)[C@@H]1CCC(=O)N1)C(=O)N[C@@H](CCCCN)C(=O)O)NC(=O)[C@H](CC(=O)O)NC(=O)[C@H](CCC(=O)O)NC(=O)[C@@H]1CCC(=O)N1)C(=O)O [GLASPIMOD] | 0 units/mL

Same assay, conditions: in the assay text read “100 ng/mL” for “1000 ng/mL”

Row | Structure (SMILES) | HSF
2 | O=C(N[C@@H](CO)C(=O)O)c1nccnc1C(=O)N[C@H](CO)C(=O)O | 0 units/mL
3 | O=C(N[C@H](CO)C(=O)O)c1nccnc1C(=O)N[C@H](CO)C(=O)O | 0 units/mL

The compounds below were run on C6 (assay: HSF produced by bone marrow-derived stromal cell lines C6.4 on stimulation with the compound at (1000 ng/mL) was determined in vitro in an GM-CFC assay.). Settings: not given.
Type: functional, Mus musculus

Row | Structure (SMILES) | HSF
4 | NCCCC[C@H](NC(=O)[C@H](CCCC[C@H](NC(=O)[C@H](CC(=O)O)NC(=O)[C@H](CO)NC(=O)c1nccc2ccccc12)C(=O)N[C@@H](CCCCN)C(=O)O)NC(=O)[C@H](CC(=O)O)NC(=O)[C@H](CO)NC(=O)c1nccc2ccccc12)C(=O)O | 0 units/mL
5 | NCCCC[C@H](NC(=O)[C@H](CCCC[C@H](NC(=O)[C@H](CC(=O)O)NC(=O)[C@H](CO)NC(=O)c1ncccc1O)C(=O)N[C@@H](CCCCN)C(=O)O)NC(=O)[C@H](CC(=O)O)NC(=O)[C@H](CO)NC(=O)c1ncccc1O)C(=O)O | 2.8e+06 units/mL
6 | NCCCC[C@H](NC(=O)[C@H](CCCC[C@H](NC(=O)[C@H](CC(=O)O)NC(=O)[C@H](CO)NC(=O)c1ccc2ccccc2n1)C(=O)N[C@@H](CCCCN)C(=O)O)NC(=O)[C@H](CC(=O)O)NC(=O)[C@H](CO)NC(=O)c1ccc2ccccc2n1)C(=O)O | 0 units/mL
7 | NCCCC[C@H](NC(=O)[C@H](CCCC[C@H](NC(=O)[C@H](CC(=O)O)NC(=O)[C@H](CO)NC(=O)c1cnccn1)C(=O)N[C@@H](CCCCN)C(=O)O)NC(=O)[C@H](CC(=O)O)NC(=O)[C@H](CO)NC(=O)c1cnccn1)C(=O)O | 120000 units/mL
8 | NCCCC[C@H](NC(=O)[C@H](CCCC[C@H](NC(=O)[C@H](CC(=O)O)NC(=O)[C@H](CO)NC(=O)c1ccc[nH]1)C(=O)N[C@@H](CCCCN)C(=O)O)NC(=O)[C@H](CC(=O)O)NC(=O)[C@H](CO)NC(=O)c1ccc[nH]1)C(=O)O | 1e+06 units/mL
9 | O=C(N[C@@H](CO)C(=O)O)c1ccccc1C(=O)N[C@H](CO)C(=O)O | 0 units/mL
10 | NCCCC[C@H](NC(=O)[C@H](CCCC[C@H](NC(=O)[C@H](CC(=O)O)NC(=O)[C@H](CO)NC(=O)c1cc2ccccc2[nH]1)C(=O)N[C@@H](CCCCN)C(=O)O)NC(=O)[C@H](CC(=O)O)NC(=O)[C@H](CO)NC(=O)c1cc2ccccc2[nH]1)C(=O)O | 0 units/mL
11 | CC(=O)Nc1cccc(C(=O)N[C@@H](CO)C(=O)N[C@@H](CC(=O)O)C(=O)N[C@@H](CCCC[C@H](NC(=O)[C@H](CC(=O)O)NC(=O)[C@H](CO)NC(=O)c2cccc(NC(C)=O)n2)C(=O)N[C@@H](CCCCN)C(=O)O)C(=O)N[C@@H](CCCCN)C(=O)O)n1 | 2.4e+06 units/mL
12 | O=C(N[C@H](CO)C(=O)O)c1cccnc1C(=O)N[C@@H](CO)C(=O)O | 0 units/mL
13 | O=C(N[C@@H](CO)C(=O)O)c1cccnc1C(=O)N[C@H](CO)C(=O)O | 1.2e+06 units/mL
14 | O=C(NC(CO)C(=O)O)c1nccnc1C(=O)N[C@@H](CO)C(=O)O (single isomer, unassigned) | 0 units/mL
